From patent US10730911B2, “Backbone-cyclized peptidomimetics with GLP-1R modulating activity” (POLYPHOR AG, priority 2015, dated 2020)
Where a SMILES comes first, the peptide text is derived from it. [ ]: non-standard residue; d: D form. Aad = N[C@@H](CCCC(=O)O)C(=O)O; Aic = NC1(C(=O)O)Cc2ccccc2C1; Phg = N[C@H](C(=O)O)c1ccccc1; Ac8c = NC1(C(=O)O)CCCCCCC1; Ac7c = NC1(C(=O)O)CCCCCC1; Ac6c = NC1(C(=O)O)CCCCC1; Ac5c = NC1(C(=O)O)CCCC1; Deg = CCC(N)(CC)C(=O)O; Aib = CC(C)(N)C(=O)O

Molecular target: T1, human glucagon-like peptide-1 receptor (GLP-1R) (Homo sapiens, UniProt P43220)
T1 construct: host or cells: CHO chAMPion cells
Assay: Human GLP-1 receptor cell-based assay (flash luminescence, Target Activation phase)
Conditions: CHO chAMPion cells stably co-expressing human GLP-1R, Photina and cAMP-activated calcium channel; agonist activity; normalization by forskolin at 10 μM; ^a) values from single experiment; read-out: EC50 (μM) Target Activation (TA)
Summary of the method: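 CHO cells co-expressing human GLP-1R, photoprotein and a cAMP-gated Ca2+ channel, preloaded 4 h with coelenterazine and 500 μM IBMX. Compounds at 8 concentrations from 50 μM, quadruplicate; 30 min later 10 mM CaCl2 added and flash luminescence read. EC50 normalized to 10 μM forskolin or 3.16 nM GLP-1.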

T1 sequence (P43220 24-463): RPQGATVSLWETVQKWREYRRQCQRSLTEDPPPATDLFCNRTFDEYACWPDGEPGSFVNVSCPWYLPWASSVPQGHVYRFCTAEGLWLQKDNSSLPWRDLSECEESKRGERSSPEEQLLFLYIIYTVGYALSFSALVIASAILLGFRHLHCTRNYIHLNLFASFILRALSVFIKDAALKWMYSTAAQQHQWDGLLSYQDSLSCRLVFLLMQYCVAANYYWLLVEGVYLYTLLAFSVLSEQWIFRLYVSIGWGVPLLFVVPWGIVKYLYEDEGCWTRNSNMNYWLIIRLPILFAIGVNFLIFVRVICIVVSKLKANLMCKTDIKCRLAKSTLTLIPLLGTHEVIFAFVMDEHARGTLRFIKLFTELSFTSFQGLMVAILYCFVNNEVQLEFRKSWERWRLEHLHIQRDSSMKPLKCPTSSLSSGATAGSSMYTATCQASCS

| EC50 [µM] | Structure (SMILES) |
| --- | --- |
| 1.8 | CC(C)C[C@@H]1NC(=O)[C@H](CC(C)C)NC(=O)[C@H](CCC(=O)O)NC(=O)[C@H](Cc2ccccc2)NC(=O)C(C)(C)NC(=O)[C@H]2CCCN2C(=O)[C@H](Cc2ccccc2)NC(=O)[C@H](CCC(=O)O)NC(=O)[C@H](Cc2c[nH]c3ccccc23)NC(=O)[C@H](C)NC1=O [compound 45, cyclo(-Phe-Glu-Leu-Leu-Ala-Trp-Glu-Phe-^DPro-Aib-)] (cyclo(FELLAWEF[dP][Aib])) |
| 5.1 ± 1.4 | CC(C)C[C@@H]1NC(=O)[C@H](CCC(N)=O)NC(=O)[C@H](Cc2c[nH]c3ccccc23)NC(=O)[C@H](Cc2ccccc2)NC(=O)C2(CCCC2)NC(=O)[C@H]2CCCN2C(=O)[C@H](Cc2ccccc2)NC(=O)[C@H](CCC(=O)O)NC(=O)[C@H](Cc2c[nH]c3ccccc23)NC(=O)[C@H](C)NC1=O [compound 46, cyclo(-Phe-Trp-Gln-Leu-Ala-Trp-Glu-Phe-^DPro-Cyp-)] (cyclo(FWQLAWEF[dP][Ac5c])) |
| 2 | CCC1(CC)NC(=O)[C@H]2CCCN2C(=O)[C@H](Cc2ccccc2)NC(=O)[C@H](CCC(=O)O)NC(=O)[C@H](Cc2c[nH]c3ccccc23)NC(=O)[C@H](C)NC(=O)[C@H](CC(C)C)NC(=O)[C@H](CC(C)C)NC(=O)[C@H](CCC(=O)O)NC(=O)[C@H](Cc2ccccc2)NC1=O [compound 47, cyclo(-Phe-Glu-Leu-Leu-Ala-Trp-Glu-Phe-^DPro-Deg-)] (cyclo(FELLAWEF[dP][Deg])) |
| 0.9 ± 0.18 | CC(C)C[C@@H]1NC(=O)[C@H](CCC(=O)O)NC(=O)[C@H](Cc2ccccc2)NC(=O)C2(CCCC2)NC(=O)[C@H]2CCCN2C(=O)[C@H](Cc2ccccc2)NC(=O)[C@H](CCC(=O)O)NC(=O)[C@H](Cc2c[nH]c3ccccc23)NC(=O)[C@H](C)NC(=O)[C@H](Cc2ccc(O)cc2)NC1=O [compound 48, cyclo(-Phe-Glu-Leu-Tyr-Ala-Trp-Glu-Phe-^DPro-Cyp-)] (cyclo(FELYAWEF[dP][Ac5c])) |
| 3.1 | CC(C)C[C@@H]1NC(=O)[C@H](CCC(N)=O)NC(=O)[C@H](Cc2ccccc2)NC(=O)C2(CCCCC2)NC(=O)[C@H]2CCCN2C(=O)[C@H](Cc2ccc(O)cc2)NC(=O)[C@H](CCCC(=O)O)NC(=O)[C@H](Cc2c[nH]c3ccccc23)NC(=O)[C@H](C)NC(=O)[C@H](Cc2ccc(O)cc2)NC1=O [compound 49, cyclo(-Phe-Gln-Leu-Tyr-Ala-Trp-Hgl-Tyr-^DPro-Chx-)] (cyclo(FQLYAW[Aad]Y[dP][Ac6c])) |
| 2.4 | CC(C)C[C@@H]1NC(=O)[C@H](CCC(=O)O)NC(=O)[C@H](Cc2ccccc2)NC(=O)C2(CCCCC2)NC(=O)[C@H]2CCCN2C(=O)[C@H](c2ccccc2)NC(=O)[C@H](CCC(=O)O)NC(=O)[C@H](Cc2c[nH]c3ccccc23)NC(=O)[C@H](C)NC(=O)[C@H](Cc2ccc(O)cc2)NC1=O [compound 50, cyclo(-Phe-Glu-Leu-Tyr-Ala-Trp-Glu-Phg-^DPro-Chx-)] (cyclo(FELYAWE[Phg][dP][Ac6c])) |
| 3.3 | CC(C)C[C@@H]1NC(=O)[C@H](Cc2c[nH]cn2)NC(=O)[C@H](Cc2ccccc2)NC(=O)C(C)(C)NC(=O)[C@H]2CCCN2C(=O)[C@H](Cc2ccc(O)cc2)NC(=O)[C@H](CCC(N)=O)NC(=O)[C@H](Cc2c[nH]c3ccccc23)NC(=O)[C@H](C)NC(=O)[C@H](Cc2ccc(O)cc2)NC1=O [compound 51, cyclo(-Phe-His-Leu-Tyr-Ala-Trp-Gln-Tyr-^DPro-Aib-)] (cyclo(FHLYAWQY[dP][Aib])) |
| 0.82 ± 0.25 | CC(C)C[C@@H]1NC(=O)[C@H](CC(C)C)NC(=O)[C@H](CCC(=O)O)NC(=O)[C@H](Cc2ccccc2)NC(=O)C2(Cc3ccccc3C2)NC(=O)[C@H]2CCCN2C(=O)[C@H](Cc2ccccc2)NC(=O)[C@H](CCC(=O)O)NC(=O)[C@H](Cc2c[nH]c3ccccc23)NC(=O)[C@H](C)NC1=O [compound 52, cyclo(-Phe-Glu-Leu-Leu-Ala-Trp-Glu-Phe-^DPro-Ind-)] (cyclo(FELLAWEF[dP][Aic])) |
| 2.1 | CC(C)C[C@@H]1NC(=O)[C@H](CC(C)C)NC(=O)[C@H](CCC(=O)O)NC(=O)[C@H](Cc2ccccc2)NC(=O)C2(CCCCCC2)NC(=O)[C@H]2CCCN2C(=O)[C@H](Cc2ccccc2)NC(=O)[C@H](CCC(=O)O)NC(=O)[C@H](Cc2c[nH]c3ccccc23)NC(=O)[C@H](C)NC1=O [compound 53, cyclo(-Phe-Glu-Leu-Leu-Ala-Trp-Glu-Phe-^DPro-Ac7c-)] (cyclo(FELLAWEF[dP][Ac7c])) |
| 1.1 | CC(C)C[C@@H]1NC(=O)[C@H](CC(C)C)NC(=O)[C@H](CCC(=O)O)NC(=O)[C@H](Cc2ccccc2)NC(=O)C2(CCCCCCC2)NC(=O)[C@H]2CCCN2C(=O)[C@H](Cc2ccccc2)NC(=O)[C@H](CCC(=O)O)NC(=O)[C@H](Cc2c[nH]c3ccccc23)NC(=O)[C@H](C)NC1=O [compound 54, cyclo(-Phe-Glu-Leu-Leu-Ala-Trp-Glu-Phe-^DPro-Ac8c-)] (cyclo(FELLAWEF[dP][Ac8c])) |
